# According to patent publication US12180207B2 (ARRAY BIOPHARMA INC., priority 2018, dated 2024):
# Tests used:
# [1] = target: phosphorylated FGFR3 (SEQ ID NO: 5, amino acids 449 to 759) (Homo sapiens (Human), UniProt P22607); assay: FGFR enzyme binding assay (HTRF tracer displacement), FGFR3; conditions: 5 nM phosphorylated FGFR3, average of multiple determinations if made
# Procedure, shortened: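 Kinase and tracer were incubated with compound for 60 minutes at 22° C. Tracer displacement was then measured by HTRF, and results were expressed as POC with 1 μM control inhibitor defining full displacement.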
# [2] = target: recombinant human FGFR1 catalytic domain (amino acids 308-731) (Homo sapiens (Human), UniProt P11362); assay: FGFR1 enzyme activity assay (LanthaScreen TR-FRET); format: biochemical; conditions: 20 min incubation at 22° C., average of multiple determinations if made, read-out: FGFR1 Enz FRET IC50
# recombinant human FGFR1 catalytic domain (amino acids 308-731), sequence (P11362 other isoform, or with tags, fused parts or gaps): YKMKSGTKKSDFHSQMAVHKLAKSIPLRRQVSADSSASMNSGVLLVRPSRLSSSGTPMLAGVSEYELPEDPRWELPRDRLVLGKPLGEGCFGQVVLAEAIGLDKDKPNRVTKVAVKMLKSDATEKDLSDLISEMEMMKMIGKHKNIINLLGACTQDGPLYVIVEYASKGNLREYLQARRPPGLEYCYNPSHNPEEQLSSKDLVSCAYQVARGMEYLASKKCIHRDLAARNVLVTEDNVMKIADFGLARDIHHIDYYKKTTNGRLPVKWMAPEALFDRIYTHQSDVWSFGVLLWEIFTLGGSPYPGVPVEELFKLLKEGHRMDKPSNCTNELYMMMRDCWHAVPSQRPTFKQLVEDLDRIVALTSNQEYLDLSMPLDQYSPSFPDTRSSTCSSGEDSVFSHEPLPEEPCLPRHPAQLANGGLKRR
# Procedure, shortened: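 His-tagged FGFR1 kinase domain with 100 nM Alexa Fluor 647-poly-GT peptide and ATP in pH 7.5 HEPES/MgCl2 buffer with 2% DMSO, 20 min at 22 °C. Quenched with EDTA plus 2 nM Eu-PY20 antibody and read after 60 min. IC50 comes from a 4-parameter fit of percent of control.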
# [3] = target: FGFR3 (SEQ ID NO: 5, amino acids 449-759) (Homo sapiens (Human), UniProt P22607); assay: LC/MS FGFR3 kobs assay (covalent protein modification); format: binding; conditions: 500 nM FGFR3, 3 μM compound
# FGFR3 (SEQ ID NO: 5, amino acids 449-759), sequence (P22607 449-759): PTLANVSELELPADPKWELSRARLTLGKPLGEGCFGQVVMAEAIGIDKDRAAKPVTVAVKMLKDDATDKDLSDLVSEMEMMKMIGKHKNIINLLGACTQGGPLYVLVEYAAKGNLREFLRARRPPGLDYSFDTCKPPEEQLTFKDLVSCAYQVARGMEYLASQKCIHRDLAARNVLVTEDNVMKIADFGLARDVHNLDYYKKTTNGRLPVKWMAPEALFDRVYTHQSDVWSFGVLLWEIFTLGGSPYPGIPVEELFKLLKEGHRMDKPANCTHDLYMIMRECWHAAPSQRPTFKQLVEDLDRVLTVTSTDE
# Procedure, shortened: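 Samples are acid-quenched at set times and read by Q-TOF mass spectrometry. kobs is obtained by fitting DMSO-normalized percent unmodified protein to an exponential decay model.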
# [4] = target: HEK-293 cells transfected with dox-inducible human wild type FGFR1 (Homo sapiens (Human), UniProt P11362); assay: FGFR1 pERK cell assay; format: cell-based; conditions: HEK-293 dox-inducible FGFR1, 1 hour compound, 100 ng/ml FGF-acidic; maximum concentration 5 μM
# HEK-293 cells transfected with dox-inducible human wild type FGFR1, sequence (P11362 22-822): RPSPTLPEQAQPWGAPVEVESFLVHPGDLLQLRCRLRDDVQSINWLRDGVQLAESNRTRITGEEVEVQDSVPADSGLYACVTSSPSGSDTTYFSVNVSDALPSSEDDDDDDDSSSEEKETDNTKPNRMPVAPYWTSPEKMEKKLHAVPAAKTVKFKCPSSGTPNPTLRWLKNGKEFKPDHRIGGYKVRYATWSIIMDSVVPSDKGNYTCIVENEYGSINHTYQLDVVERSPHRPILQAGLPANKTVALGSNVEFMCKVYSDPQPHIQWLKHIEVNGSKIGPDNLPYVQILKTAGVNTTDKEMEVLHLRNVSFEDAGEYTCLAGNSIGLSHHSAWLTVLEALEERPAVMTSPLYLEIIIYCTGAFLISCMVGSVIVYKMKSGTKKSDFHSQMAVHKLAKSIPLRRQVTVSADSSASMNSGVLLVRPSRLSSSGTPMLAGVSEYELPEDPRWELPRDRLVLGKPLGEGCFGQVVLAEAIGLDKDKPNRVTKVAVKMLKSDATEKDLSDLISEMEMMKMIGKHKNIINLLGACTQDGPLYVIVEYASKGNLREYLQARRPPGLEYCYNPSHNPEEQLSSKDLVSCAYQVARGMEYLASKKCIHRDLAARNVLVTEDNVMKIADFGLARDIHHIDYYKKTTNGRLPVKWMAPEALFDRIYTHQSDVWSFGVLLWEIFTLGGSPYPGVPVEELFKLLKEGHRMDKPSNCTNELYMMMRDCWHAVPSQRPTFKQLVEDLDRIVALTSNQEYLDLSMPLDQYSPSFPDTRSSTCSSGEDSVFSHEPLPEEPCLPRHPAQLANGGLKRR
# Procedure, shortened: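 In HEK-293 cells with dox-induced human wild-type FGFR1, compounds (1:3 dilutions, top 5 μM final) were applied 1 h at 37°C before 5 min stimulation with 100 ng/ml FGF-acidic. Phospho-ERK1/2 measured by MSD sandwich immunoassay; IC50 from 4-parameter fit of POC versus vehicle and control compound.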
# [5] = target: HEK-293 cells transfected with dox-inducible human wild type FGFR3 (Homo sapiens (Human), UniProt P22607); assay: FGFR3 pERK cell assay; format: cell-based; conditions: HEK-293 dox-inducible FGFR3, 1 hour compound, 100 ng/ml FGF-acidic; maximum concentration 5 μM
# HEK-293 cells transfected with dox-inducible human wild type FGFR3, sequence (P22607 23-806): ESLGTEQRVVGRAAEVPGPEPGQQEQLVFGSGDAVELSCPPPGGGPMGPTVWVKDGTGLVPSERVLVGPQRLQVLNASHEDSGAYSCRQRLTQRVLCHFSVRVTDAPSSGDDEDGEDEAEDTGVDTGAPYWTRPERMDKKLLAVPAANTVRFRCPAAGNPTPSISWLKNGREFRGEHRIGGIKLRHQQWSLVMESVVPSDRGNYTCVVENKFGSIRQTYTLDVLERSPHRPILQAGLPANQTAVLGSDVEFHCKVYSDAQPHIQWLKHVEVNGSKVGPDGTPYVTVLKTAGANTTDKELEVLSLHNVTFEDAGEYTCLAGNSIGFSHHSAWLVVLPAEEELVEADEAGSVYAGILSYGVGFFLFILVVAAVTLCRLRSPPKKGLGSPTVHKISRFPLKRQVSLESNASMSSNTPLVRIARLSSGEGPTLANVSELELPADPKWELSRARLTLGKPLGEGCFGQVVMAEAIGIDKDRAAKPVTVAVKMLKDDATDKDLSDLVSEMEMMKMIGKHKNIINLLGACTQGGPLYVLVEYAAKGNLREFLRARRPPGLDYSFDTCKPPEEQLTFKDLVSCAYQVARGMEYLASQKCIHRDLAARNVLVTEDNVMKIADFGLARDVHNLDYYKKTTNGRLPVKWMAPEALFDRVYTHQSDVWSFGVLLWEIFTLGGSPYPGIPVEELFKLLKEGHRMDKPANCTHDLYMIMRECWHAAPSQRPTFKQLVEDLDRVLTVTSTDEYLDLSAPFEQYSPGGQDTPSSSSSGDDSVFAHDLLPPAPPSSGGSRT
# Procedure, shortened: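 Doxycycline-induced cells preincubated 1 h at 37 °C with compound (1:3 dilutions, top 5 μM final), then stimulated 5 min with 100 ng/ml FGF-acidic. Lysate phospho-ERK1/2 measured by MSD sandwich assay; IC50 at 50 POC from 4-parameter fit, normalised to no-compound and control-compound wells.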
# phosphorylated FGFR3 (SEQ ID NO: 5, amino acids 449 to 759), sequence (P22607 449-759): as the sequence (P22607 449-759) above
SMILES,IC50 [1] [nM],IC50 [2] [nM],FGFR3 Enz kobs [3] [min⁻¹],IC50 [4] [nM],IC50 [5] [nM]
"C=CC(=O)N1CC(F)(C(=O)N2CCN(c3cc(C)c(-c4cc(OC)c5c(C#N)cnn5c4)cn3)CC2)C1 [Example 114, 6-(6-(4-(1-acryloyl-3-fluoroazetidine-3-carbonyl)piperazin-1-yl)-4-methylpyridin-3-yl)-4-methoxypyrazolo[1,5-a]pyridine-3-carbonitrile]",63,308,0.03264,1310,248
"C=CC(=O)N1CC(C(=O)N2CCN(c3ccc(-c4cc(OC)c5c(C#N)cnn5c4)nn3)CC2)C1 [Example 115, 6-(6-(4-(1-acryloylazetidine-3-carbonyl)piperazin-1-yl)pyridazin-3-yl)-4-methoxypyrazolo[1,5-a]pyridine-3-carbonitrile]",11,85,0.01937,≥ 5000,1240
"C=CC(=O)N1CC(C(=O)N2CCN(c3cnc(-c4cc(OC)c5c(C#N)cnn5c4)cn3)CC2)C1 [Example 116, 6-(5-(4-(1-acryloylazetidine-3-carbonyl)piperazin-1-yl)pyrazin-2-yl)-4-methoxypyrazolo[1,5-a]pyridine-3-carbonitrile]",19,54,0.02585,1230,164
"C=CC(=O)N1CC(OC)(C(=O)N2CCC(n3ncc(-c4cc(OC)c5c(Cl)cnn5c4)c3C)CC2)C1 [Example 117, 1-(3-(4-(4-(3-chloro-4-methoxypyrazolo[1,5-a]pyridin-6-yl)-5-methyl-1H-pyrazol-1-yl)piperidine-1-carbonyl)-3-methoxyazetidin-1-yl)prop-2-en-1-one]",19,789,0.03885,1200,36
"C=CC(=O)N1CC(CN2CCC(n3ncc(-c4cc(OC)c5c(Cl)cnn5c4)c3C)CC2)C1 [Example 118, 1-(3-((4-(4-(3-chloro-4-methoxypyrazolo[1,5-a]pyridin-6-yl)-5-methyl-1H-pyrazol-1-yl)piperidin-1-yl)methyl)azetidin-1-yl)prop-2-en-1-one]",9,551,0.02502,674,62
"C=CC(=O)N1CC(CN2CCC(n3ncc(-c4cc(OC)c5c(Cl)cnn5c4)c3C)CC2)(OC)C1 [Example 119, 1-(3-((4-(4-(3-chloro-4-methoxypyrazolo[1,5-a]pyridin-6-yl)-5-methyl-1H-pyrazol-1-yl)piperidin-1-yl)methyl)-3-methoxyazetidin-1-yl)prop-2-en-1-one]",8,334,0.04536,591,50
"C=CC(=O)N1CC(CN2CCC(n3ncc(-c4cc(OC)c5c(Cl)cnn5c4)c3C)CC2)C1(C)C (stereo not shown) [Example 120, 1-(3-((4-(4-(3-chloro-4-methoxypyrazolo[1,5-a]pyridin-6-yl)-5-methyl-1H-pyrazol-1-yl)piperidin-1-yl)methyl)-2,2-dimethylazetidin-1-yl)prop-2-en-1-one]",33,338,0.00758,523,142
"C=CC(=O)N1CC(F)(C(=O)N2CCC(n3cc(-c4cc(OC)c5c(Cl)cnn5c4)cn3)CC2)C1 [Example 121, 1-(3-(4-(4-(3-chloro-4-methoxypyrazolo[1,5-a]pyridin-6-yl)-1H-pyrazol-1-yl)piperidine-1-carbonyl)-3-fluoroazetidin-1-yl)prop-2-en-1-one]",3,28,0.06393,169,25
"C=CC(=O)N1CC(C(=O)N2CCC(n3cc(-c4cc(OC)c5c(Cl)cnn5c4)cn3)CC2)C1 [Example 122, 1-(3-(4-(4-(3-chloro-4-methoxypyrazolo[1,5-a]pyridin-6-yl)-1H-pyrazol-1-yl)piperidine-1-carbonyl)azetidin-1-yl)prop-2-en-1-one]",7,28,0.01396,492,52
"C=CC(=O)N1CC(S(=O)(=O)N2CCC(n3cc(-c4cc(OC)c5c(C#N)cnn5c4)cn3)CC2)C1 [Example 134, 6-(1-(1-((1-acryloylazetidin-3-yl)sulfonyl)piperidin-4-yl)-1H-pyrazol-4-yl)-4-methoxypyrazolo[1,5-a]pyridine-3-carbonitrile]",2,5,0.02537,96,13
"C=CC(=O)N1CCN(C(=O)N2CCC(n3cc(-c4cc(OC)c5c(C#N)cnn5c4)cn3)CC2)C[C@@H]1CC#N [Example 135, (S)-6-(1-(1-(4-acryloyl-3-(cyanomethyl)piperazine-1-carbonyl)piperidin-4-yl)-1H-pyrazol-4-yl)-4-methoxypyrazolo[1,5-a]pyridine-3-carbonitrile]",3,20,0.02201,342,40
"COc1cc(-c2cnn(C3CCN(C(=O)C4CN(C(=O)C5=CCC5)C4)CC3)c2)cn2ncc(C#N)c12 [Example 137, 6-(1-(1-(1-(cyclobut-1-ene-1-carbonyl)azetidine-3-carbonyl)piperidin-4-yl)-1H-pyrazol-4-yl)-4-methoxypyrazolo[1,5-a]pyridine-3-carbonitrile]",8,12,0.00097,989,318
"C#CC(=O)N1CC(C(=O)N2CCC(n3cc(-c4cc(OC)c5c(C#N)cnn5c4)cn3)CC2)C1 [Example 138, 4-methoxy-6-(1-(1-(1-propioloylazetidine-3-carbonyl)piperidin-4-yl)-1H-pyrazol-4-yl)pyrazolo[1,5-a]pyridine-3-carbonitrile]",2,7,0.3446,116,16
"COc1cc(-c2cnn(C3CCN(C(=O)C4CN(C(=O)/C=C/CO)C4)CC3)c2)cn2ncc(C#N)c12 [Example 141, (E)-6-(1-(1-(1-(4-hydroxybut-2-enoyl)azetidine-3-carbonyl)piperidin-4-yl)-1H-pyrazol-4-yl)-4-methoxypyrazolo [1,5-a]pyridine-3-carbonitrile]",6,43,0.00171,≥ 5000,3910
"COc1cc(-c2cnn(C3CCN(CC4CN(C(=O)/C=C/CN(C)C)C4)CC3)c2)cn2ncc(C#N)c12 [Example 146, (E)-6-(1-(1-((1-(4-(dimethylamino)but-2-enoyl)azetidin-3-yl)methyl)piperidin-4-yl)-1H-pyrazol-4-yl)-4-methoxypyrazolo [1,5-a]pyridine-3-carbonitrile]",4,12,0.01542,496,96
"C=CC(=O)N1CC(CN2CCC(n3ncc(-c4cc(OC)c5c(C#N)cnn5c4)c3C)CC2)C1(C)C (stereo not shown) [Example 151, 6-(1-(1-((1-acryloyl-2,2-dimethylazetidin-3-yl)methyl)piperidin-4-yl)-5-methyl-1H-pyrazol-4-yl)-4-methoxypyrazolo [1,5-a]pyridine-3-carbonitrile]",11,86,0.0082,1960,592
"COc1cc(-c2cnn(C3CCN(C(=O)C4CN(C(=O)/C=C/CN(C)C)C4)CC3)c2C)cn2ncc(C#N)c12 [Example 152, (E)-6-(1-(1-(1-(4-(dimethylamino)but-2-enoyl)azetidine-3-carbonyl)piperidin-4-yl)-5-methyl-1H-pyrazol-4-yl)-4-methoxypyrazolo [1,5-a]pyridine-3-carbonitrile]",7,99,0.03526,≥ 5000,849
